Reference: patent US20240298601A1, “SESAME PLANTS RESISTANT TO ACETOLACTATE SYNTHASE-INHIBITING HERBICIDES, COMPOSITIONS AND METHODS FOR PRODUCING SAME” (Yissum Research Development Company of The Hebrew …, priority 2021, published 2024)

Assays:
[1] = tested on: SiRM plants (mutant SiALS Ala188Val); details: for ED50 SiRM: herbicide rate reducing plant growth (shoot DW) by 50%, 16 DAT, n=5, calculated from fitted curve, for Imazamox above the tested rates; for RI (resistance index): resistance/susceptible ratio of the ED50 (SiRM vs WT); for reduction in shoot DW, SiRM / reduction in shoot length, SiRM: under the recommended dose; for dose up to which SiRM plants were not affected: post-emergence dose-response; for response of SiRM plants in dose-response assay: increasing doses
[2] = tested on: wild type (S-416) sesame plants; assay: Herbicides dose-response assay (post-emergence, pots), wild type; format: in vivo, Sesamum indicum; details: for ED50 WT: herbicide rate reducing plant growth (shoot DW) by 50%, 16 DAT, sprayed at two true leaves, n=5; for reduction in shoot DW, WT / reduction in shoot length, WT: under the recommended dose; for response of WT plants in dose-response assay: increasing doses
[3] = tested on: WT plants (S-416); assay: Imazamox spraying for resistance validation, WT; format: in vivo, Sesamum indicum; details: Imazamox 48 g a.i. ha^−1; seven days after spraying
[4] = tested on: SiRM plants; assay: Imazamox post-emergence field experiment, SiRM sesame; format: in vivo, Sesamum indicum
[5] = tested on: hybrid (F1) plants (SiRM x WT); assay: Physiological characterization of F1 hybrid plants under Imazamox; format: in vivo, Sesamum indicum; details: Imazamox 48 g a.i. h^−1
Method: (§1) A cross between SiRM (♂) and the WT (♀) was made to produce F1 seeds. […] The pots were placed in a growth chamber under long-day conditions (16/8 light/dark and 32/25° C.). […] Plants were characterized daily for canopy coverage (Canopeo software, Oklahoma State University, USA; Patrignani and Ochsner, 2015. Agronomy Journal, 107:2312-2320) and gas exchange (IRGA 6800; Li-Cor, Lincoln, Nebraska, USA), over the next 11 days. At the end of the experiment, 21 DAT, the aboveground material was harvested, oven-dried (80° C., 48 h), and weighed to obtain shoot DW.

[6] = tested on: Amaranthus palmeri; assay: Imazamox post-emergence field experiment, weed control; format: in vivo; details: Imazamox 40 g a.i. h^−1, non-treated ~12 plants m^−1
Method: The experiment was conducted in the Experimental Farm of the Hebrew University of Jerusalem in Rehovot, Israel ([…]; 54 m above sea level). The soil at this location is brown-red, degrading, sandy soil (Rhodoxeralf), composed of 76% sand, 8% silt, and 16% clay. […] Each plot consisted of a 5-meter row, with a sowing density of 7-plants m^−1 (n=6). At the end of the season, the survival rate was analyzed (number of plants per plot) and the plants in the plot were harvested. Samples were threshed using a laboratory thresher (Wintersteiger AG LD 350, Austria) and after sifting, the seeds were weighed to obtain seed yield.
To test the efficiency of Imazamox for weed control, Amaranthus palmeri was used as a model. Seeds of A. palmeri were sown (20-seeds m-1) as competitor weeds alongside the two sesame lines described above. As a negative control, plots that were not treated were used. At the end of the experiment, the number of A. palmeri plants per plot was counted.

[7] = tested on: WT (S-416) plants; assay: Physiological characterization under Imazamox, WT parental line; format: in vivo, Sesamum indicum; details: Imazamox 48 g a.i. h^−1
Method: as §1

[8] = tested on: WT (S-416) sesame; assay: Imazamox post-emergence field experiment, WT sesame; format: in vivo, Sesamum indicum; details: Imazamox 40 g a.i. h^−1
[9] = tested on: mutant plants (SiRM); assay: Imazamox spraying for resistance validation, M3 mutant plants; details: Imazamox 48 g a.i. ha^−1; seven days after spraying
Description: Genomic DNA was extracted using the CTAB protocol, with modification for sesame as described before (Teboul et al., 2020. Genes, 11, 1221). To test possible mutation(s) in the SiALS gene, a targeted sequencing was applied using four primer pairs covering the whole gene sequence (Table 1) according to the sequenced sesame genome (Zhongzhi No. 13; Wang et al., 2014. Genome Biology, 15:1-13). The gene was amplified, and PCR products were sequenced (HUJI genome center, Israel). Sequence alignment was performed using the Clustal Omega tool (Madeira et al., 2019. Nucleic Acids Research, 47:636-641).

[10] = tested on: SiRM plants; assay: Physiological characterization under Imazamox, SiRM parental line; format: in vivo, Sesamum indicum; details: Imazamox 48 g a.i. h^−1
Method: as §1

[11] = tested on: WT plants; assay: Field observation after Imazapic recommended dose, WT; format: in vivo, Sesamum indicum; details: Imazapic 48 g a.i. h^−1
[12] = tested on: WT plants; assay: Imazapic pre-emergence pot experiment, WT; format: in vivo, Sesamum indicum
[13] = tested on: SiRM plants; assay: Roots development under increasing dosages of Imazapic; format: in vivo, Sesamum indicum; details: pre-emergence; 24, 48, 96 and 192 g a.i. ha^−1; sandy soil; 14 DAT
[14] = tested on: SiRM plants; assay: Field observation after Imazapic recommended dose, SiRM; format: in vivo, Sesamum indicum; details: Imazapic 48 g a.i. h^−1
[15] = tested on: Abutilon Theophrastus; assay: 2021 field trial, Imazapic pre-emergence, weed control; format: in vivo; details: pre-emergence Imazapic 48 g a.i. ha^−1; field 2021
Method: (§2) An additional field experiment was conducted during the summer of 2021 at the Experimental Farm of the Hebrew University of Jerusalem, Rehovot, Israel. A split-plot random block design with six replicates was applied. Treatments included: weed-free plots (i.e., manual weeding), untreated control (i.e., herbicide-free treatment) and application of Imazapic (48 g a.i. ha^−1) pre-germination. The plot size was 3.6 m×0.8 m (10 cm between plants) with two rows per plot. To evaluate the efficacy of weed control, two weeds were sown on the sesame sowing lines (Amaranthus Palmeri, 500 seeds per plot, and Abutilon Theophrastus, 70 seeds per plot). Phenological characterization was conducted during the growing season for the flowering date, the number of brunches per plant and the height to the first capsule. At the end of the growing season, the number of weeds per plot was counted and weeds were harvested for dry weight measurements. Sesame plants were harvested 1 m from the middle of the plot, samples were threshed using a laboratory thresher (Wintersteiger AG LD 350, Austria), and after sifting, the seeds were weighed to obtain seed yield.

[16] = tested on: Amaranthus palmeri; assay: as above; format: in vivo; details: pre-emergence Imazapic 48 g a.i. ha^−1; field 2021
Method: as §2

[17] = tested on: SiRM plants; details: pre-emergence
[18] = tested on: resistant plants of the invention (SiRM); assay: 2021 field trial, Imazapic pre-emergence, sesame performance; format: in vivo, Sesamum indicum; details: pre-emergence Imazapic 48 g a.i. ha^−1
Method: as §2

## COc1ncc(F)c2nc(S(=O)(=O)Nc3c(F)cccc3F)nn12 [Florasulam, N-(2,6-difluorophenyl)-8-fluoro-5-methoxy-[1,2,4]triazolo[1,5-c]pyrimidine-2-sulfonamide]
[1]
  ED50 SiRM: 62 g a.i. ha^−1
  RI (resistance index): 2
[2]
  ED50 WT: 31 g a.i. ha^−1

## COc1cc(OC)nc(NC(=O)NS(=O)(=O)c2cc(NC=O)ccc2C(=O)N(C)C)n1 [Foramsulfuron, 2-[(4,6-dimethoxypyrimidin-2-yl)carbamoylsulfamoyl]-4-formamido-N,N-dimethylbenzamide]
[1]
  ED50 SiRM: 165 g a.i. ha^−1
  RI (resistance index): 3.95
  reduction in shoot DW, SiRM: 8%
  reduction in shoot length, SiRM: 58%
[2]
  ED50 WT: 41 g a.i. ha^−1
  reduction in shoot DW, WT: 25%
  reduction in shoot length, WT: 64%

## COCc1cnc(C2=NC(C)(C(C)C)C(=O)N2)c(C(=O)O)c1 (stereo not shown) [Imazamox, 5-(methoxymethyl)-2-(4-methyl-5-oxo-4-propan-2-yl-1H-imidazol-2-yl) pyridine-3-carboxylic acid]
[3]
  visual symptoms, WT: reduced growth and meristem damages
[4]; Imazamox 40 g a.i. h^−1, control 16.7, P=0.02
  seed yield per plot, SiRM: 31.5 g
[4]; Imazamox 40 g a.i. h^−1, field
  effect on the SiRM plots stand: no significant effect
[4]; Imazamox 40 g a.i. h^−1, weed-free control 2.88, P=0.011
  seed yield per plant, SiRM: 6.05 g per plant
[4]; field conditions, post-emergence
  yield of SiRM compared to the corresponding weed-free UTC: two-fold greater yield
[5]
  recovery of assimilation, hybrid plants: after six days they fully recovered
[5]; 21 DAT
  reduction in plant height, hybrid plants: ~40%
  reduction in shoot DW, hybrid plants: ~35%
[5]; UTC 5.6
  nodes to the first flower, hybrid plants treated: 11.4 nodes
[5]; UTC 8.0
  nodes length, hybrid plants treated: 2.4 cm
[5]; UTC 44.6
  height of first flower bud, hybrid plants treated: 27.6 cm
[1]; SiRM, low doses of 3, 6 and 12 g a.i. h^−1
  increment in shoot DW compared with untreated control plants: 50%
[1]
  ED50 SiRM: 823 g a.i. ha^−1
  RI (resistance index): 45
[6]
  number of A. palmeri plants: ~0 A. palmeri plants per meter plot
[7]; 21 DAT
  state of WT plants at the end of the experiment: fully eradicated
[7]; after 48 h
  assimilation rate of WT: < 20%
[8]; field, P<0.0001
  reduction in WT sesame stand: 75%
[8]; weed-free control 3.6, P=0.0015
  seed yield per plant, WT: 0.93 g per plant
[8]; weed-free control 19, P=0.0002
  seed yield per plot, WT: 1.6 g
[9]
  visual symptoms, SiRM: did not display any visual symptoms
[10]; 21 DAT
  state of SiRM plants at the end of the experiment: showed no effect of Imazamox treatment
[10]; after 48 h
  recovery of assimilation, SiRM: recover completely and did not differ from the UTC plants
[2]
  ED50 WT: 18 g a.i. ha^−1
[2]; post-emergence dose-response
  dose at which WT plants already exhibited visual symptoms and reduced shoot DW: 6 g a.i. ha^−1

## Cc1cnc(C2=NC(C)(C(C)C)C(=O)N2)c(C(=O)O)c1 (stereo not shown) [Imazapic, 5-methyl-2-(4-methyl-5-oxo-4-propan-2-yl-1H-imidazol-2-yl) pyridine-3-carboxylic acid]
[11]
  state of WT plants in the field: dead already 10 DAT
[12]; 144 g a.i. h^−1
  development of WT plants: fully controlled and did not develop beyond the growth of the cotyledons
[12]; 144 g a.i. h^−1, 14 days after sowing, control 2.23, P=0.0008
  canopy coverage, WT: 0.27 % of coverage
[12]; 144 g a.i. h^−1, control 82
  root length, WT: 5 mm
[1]; 16X
  rate at which SiRM exhibited severe damage symptoms: 768 g a.i. h^−1
[1]
  ED50 SiRM: 563 g a.i. ha^−1
  dose up to which SiRM plants were not affected: ≤ 96 g a.i. h^−1
  RI (resistance index): 2.4
[13]
  root volume, SiRM: didn't show any significant differences in root volume
[14]
  state of SiRM plants in the field: only slightly affected and showed a five-day delay in shoot development and flowering time
[15]
  control of Abutilon: didn't develop beyond the cotyledons
[16]
  control of A. Palmeri: didn't emerge (full-control)
[17]; 48, 96 and 144 g a.i. h^−1, clay soil
  survival rate, SiRM: 100%
[17]; 144 g a.i. h^−1
  development of SiRM plants: developed normally without any visual differences compared to the untreated control
[17]; 144 g a.i. h^−1, 14 days after sowing
  canopy coverage, SiRM: maintained similar values
[17]; 144 g a.i. h^−1, control 72, P=0.106
  root length, SiRM: 85 mm
[18]
  height to the first capsule: reduced height to the first capsule
[18]; compared with weed-free control
  effect on growth of the resistant plants: no deleterious effects
[2]; at 6 g a.i. h^−1, P=0.0055
  reduction in growth of WT: 18%
[2]
  ED50 WT: 236 g a.i. ha^−1

## CCc1cnc(C2=NC(C)(C(C)C)C(=O)N2)c(C(=O)O)c1 (stereo not shown) [Imazethapyr, 5-ethyl-2-(4-methyl-5-oxo-4-propan-2-yl-1H-imidazol-2-yl) pyridine-3-carboxylic acid]
[1]; 160 g a.i. h^−1
  state of SiRM plants at the highest dosage: viable and fully recovered
[1]
  ED50 SiRM: 161 g a.i. ha^−1
  dose up to which SiRM plants were not affected: ≤ 80 g a.i. h^−1
  RI (resistance index): 48
[2]; 20 g a.i. h^−1
  effect on WT plants at field recommended dosage: deadly for the plants
[2]
  ED50 WT: 3.7 g a.i. ha^−1

## CCCOc1nn(C(=O)NS(=O)(=O)c2ccccc2C(=O)OC)c(=O)n1C [Propoxycarbazone, methyl 2-[(4-methyl-5-oxo-3-propoxy-1,2,4-triazole-1-carbonyl)sulfamoyl]benzoate]
[1]
  ED50 SiRM: 96 g a.i. ha^−1
  response of SiRM plants in dose-response assay: able to maintain growth (and develop flowering buds) up to the recommended dose
  RI (resistance index): 8
[2]
  ED50 WT: 12 g a.i. ha^−1
  response of WT plants in dose-response assay: severe response of the WT plants already at a low dose of ⅛X

## COc1cc(OC)nc(Sc2cccc(Cl)c2C(=O)O)n1 [Pyrithiobac sodium, sodium;2-chloro-6-(4,6-dimethoxypyrimidin-2-yl)sulfanylbenzoate]
[1]
  ED50 SiRM: 202 g a.i. ha^−1
  response of SiRM plants in dose-response assay: able to survive up to the recommended dose
  RI (resistance index): 20.5
  reduction in shoot length, SiRM: 66%
[2]
  ED50 WT: 9.8 g a.i. ha^−1
  response of WT plants in dose-response assay: lethal for both lines

## COc1cc(OC)nc(NC(=O)NS(=O)(=O)c2ncccc2OCC(F)(F)F)n1 [Trifloxysulfuron, 1-(4,6-dimethoxypyrimidin-2-yl)-3-[3-(2,2,2-trifluoroethoxy)pyridin-2-yl]sulfonylurea]
[1]
  ED50 SiRM: 69 g a.i. ha^−1
  RI (resistance index): 2
  reduction in shoot DW, SiRM: 18%
  reduction in shoot length, SiRM: 7%
[2]
  ED50 WT: 33 g a.i. ha^−1
  reduction in shoot DW, WT: 63%
  reduction in shoot length, WT: 74%
